# Results reported in ChEMBL document CHEMBL4507299, “Data for DCP probe PF-04554878” (2021).
# Legend:
# [1] = molecular target: Adenosine receptor A2a (Homo sapiens, UniProt P29274); assay: Cerep profiling assay (ADORA2A); set-up: compound concentration 10 uM
# [2] = molecular target: Vascular endothelial growth factor receptor 1 (Homo sapiens, UniProt P17948); assay: Cerep profiling assay (FLT1); set-up: compound concentration 10 uM
# [3] = molecular target: Calcium/calmodulin-dependent protein kinase type 1 (Homo sapiens) (UniProt Q14012); assay: CAMK1 Invitrogen kinase activity assay; conditions: Compound concentration 1.0 uM
# Calcium/calmodulin-dependent protein kinase type 1 (Homo sapiens), sequence (Q14012 whole entry, looked up): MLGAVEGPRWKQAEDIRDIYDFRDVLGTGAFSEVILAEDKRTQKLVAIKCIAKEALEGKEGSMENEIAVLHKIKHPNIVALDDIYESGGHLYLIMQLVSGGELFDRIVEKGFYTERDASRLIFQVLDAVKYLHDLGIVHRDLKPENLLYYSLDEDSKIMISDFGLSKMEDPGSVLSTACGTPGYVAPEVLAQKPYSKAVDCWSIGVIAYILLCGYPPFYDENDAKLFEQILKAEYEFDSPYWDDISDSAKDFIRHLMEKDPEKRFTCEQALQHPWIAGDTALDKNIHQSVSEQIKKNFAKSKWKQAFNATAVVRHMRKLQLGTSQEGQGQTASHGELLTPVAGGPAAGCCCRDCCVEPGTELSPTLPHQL
# [4] = molecular target: Cyclin-dependent kinase 2/cyclin A (Homo sapiens) (UniProt P24941+P20248+P78396); assay: (§1) CDK2/cyclinA Invitrogen kinase activity assay; type: protein-complex assay; conditions: Compound concentration 1.0 uM
# [5] = molecular target: Cyclin-dependent kinase 2/cyclin A (Homo sapiens, UniProt P24941); assay: as §1; type: protein-complex assay
# [6] = molecular target: CDK6/cyclin D3 (Homo sapiens) (UniProt P30281+Q00534); assay: CDK6/cyclinD3 Invitrogen kinase activity assay; type: protein-complex assay; conditions: Compound concentration 1.0 uM
# [7] = molecular target: Ephrin type-A receptor 2 (Homo sapiens) (UniProt P29317); assay: ECK Invitrogen kinase activity assay; conditions: Compound concentration 1.0 uM
# [8] = molecular target: Glycogen synthase kinase-3 beta (Homo sapiens, UniProt P49841); assay: GSK3beta Invitrogen kinase activity assay
# [9] = molecular target: MAP kinase-activated protein kinase 2 (Homo sapiens) (UniProt P49137); assay: MAPKAPK2 Invitrogen kinase activity assay; conditions: Compound concentration 1.0 uM
# MAP kinase-activated protein kinase 2 (Homo sapiens), sequence (P49137 whole entry, looked up): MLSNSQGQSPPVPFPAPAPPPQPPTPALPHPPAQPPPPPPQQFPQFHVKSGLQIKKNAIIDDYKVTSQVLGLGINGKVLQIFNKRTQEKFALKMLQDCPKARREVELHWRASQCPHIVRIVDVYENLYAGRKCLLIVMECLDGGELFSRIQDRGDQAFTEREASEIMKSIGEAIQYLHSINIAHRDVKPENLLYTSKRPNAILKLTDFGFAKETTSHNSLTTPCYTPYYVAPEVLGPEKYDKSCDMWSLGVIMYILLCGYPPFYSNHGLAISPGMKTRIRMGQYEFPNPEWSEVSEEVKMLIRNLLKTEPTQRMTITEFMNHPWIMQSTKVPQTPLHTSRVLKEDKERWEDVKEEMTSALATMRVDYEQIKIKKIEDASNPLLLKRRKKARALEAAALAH
# [10] = molecular target: T1, Serine/threonine-protein kinase 3 (Homo sapiens) (UniProt Q13188); assay: MST2 Invitrogen kinase activity assay; conditions: Compound concentration 1.0 uM
# T1 sequence (whole entry): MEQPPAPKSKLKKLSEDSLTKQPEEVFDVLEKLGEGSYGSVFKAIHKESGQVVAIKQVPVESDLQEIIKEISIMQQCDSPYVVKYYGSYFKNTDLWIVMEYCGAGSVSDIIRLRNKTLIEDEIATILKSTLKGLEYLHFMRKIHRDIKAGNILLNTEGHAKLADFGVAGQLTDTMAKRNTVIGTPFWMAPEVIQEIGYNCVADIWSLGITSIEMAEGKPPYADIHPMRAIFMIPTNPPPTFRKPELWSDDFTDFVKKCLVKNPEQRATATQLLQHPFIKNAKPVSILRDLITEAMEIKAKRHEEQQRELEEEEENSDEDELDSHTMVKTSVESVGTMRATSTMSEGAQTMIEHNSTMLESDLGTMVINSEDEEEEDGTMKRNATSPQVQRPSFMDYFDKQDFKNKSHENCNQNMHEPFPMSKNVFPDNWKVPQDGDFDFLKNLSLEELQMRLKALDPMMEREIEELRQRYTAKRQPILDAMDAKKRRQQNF
# [11] = molecular target: Protein kinase C zeta type (Homo sapiens) (UniProt Q05513); assay: PKCzeta Invitrogen kinase activity assay; conditions: Compound concentration 1.0 uM
# Protein kinase C zeta type (Homo sapiens), sequence (Q05513 whole entry): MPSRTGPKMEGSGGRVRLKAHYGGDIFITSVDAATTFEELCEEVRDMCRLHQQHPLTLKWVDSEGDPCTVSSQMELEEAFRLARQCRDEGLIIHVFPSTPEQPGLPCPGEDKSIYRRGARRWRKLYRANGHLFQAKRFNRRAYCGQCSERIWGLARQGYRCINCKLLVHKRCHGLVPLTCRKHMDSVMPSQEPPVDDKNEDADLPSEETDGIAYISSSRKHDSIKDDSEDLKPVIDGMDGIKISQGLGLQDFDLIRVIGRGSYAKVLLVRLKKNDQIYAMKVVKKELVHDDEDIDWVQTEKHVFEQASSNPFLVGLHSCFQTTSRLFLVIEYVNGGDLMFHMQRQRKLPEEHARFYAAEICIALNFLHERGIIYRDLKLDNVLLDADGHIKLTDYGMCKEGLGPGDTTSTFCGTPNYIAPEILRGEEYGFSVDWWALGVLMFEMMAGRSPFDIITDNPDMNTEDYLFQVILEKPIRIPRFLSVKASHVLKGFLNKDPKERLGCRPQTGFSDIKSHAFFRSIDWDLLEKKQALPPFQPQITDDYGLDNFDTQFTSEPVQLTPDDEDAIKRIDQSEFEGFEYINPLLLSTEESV
# [12] = test system: Ribosomal protein S6 kinase beta-1 (Homo sapiens), P23443 [UNDEFINED MUTATION]; assay: S6K T389D D3E Invitrogen kinase activity assay; conditions: Compound concentration 1.0 uM
# Ribosomal protein S6 kinase beta-1 (Homo sapiens), P23443 [UNDEFINED MUTATION], sequence (P23443 whole entry, looked up, stated change not applied): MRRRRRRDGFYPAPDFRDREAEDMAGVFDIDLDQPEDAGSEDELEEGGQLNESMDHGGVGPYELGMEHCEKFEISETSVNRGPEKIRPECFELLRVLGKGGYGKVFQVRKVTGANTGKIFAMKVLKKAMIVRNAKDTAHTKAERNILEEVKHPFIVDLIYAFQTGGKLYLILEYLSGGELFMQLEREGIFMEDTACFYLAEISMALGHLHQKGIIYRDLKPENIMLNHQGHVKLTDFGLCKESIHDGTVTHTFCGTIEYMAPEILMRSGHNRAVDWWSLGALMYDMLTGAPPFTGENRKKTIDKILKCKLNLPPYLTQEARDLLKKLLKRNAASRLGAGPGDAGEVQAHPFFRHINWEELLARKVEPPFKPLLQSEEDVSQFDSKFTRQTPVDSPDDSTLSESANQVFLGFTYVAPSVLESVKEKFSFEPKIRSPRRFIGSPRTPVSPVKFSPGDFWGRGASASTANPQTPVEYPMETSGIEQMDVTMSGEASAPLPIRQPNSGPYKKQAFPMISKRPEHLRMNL
# [13] = molecular target: Mitogen-activated protein kinase 14 (Homo sapiens) (UniProt Q16539); assay: SAPK2A/p38 Invitrogen kinase activity assay; conditions: Compound concentration 1.0 uM
# Mitogen-activated protein kinase 14 (Homo sapiens), sequence (Q16539 whole entry): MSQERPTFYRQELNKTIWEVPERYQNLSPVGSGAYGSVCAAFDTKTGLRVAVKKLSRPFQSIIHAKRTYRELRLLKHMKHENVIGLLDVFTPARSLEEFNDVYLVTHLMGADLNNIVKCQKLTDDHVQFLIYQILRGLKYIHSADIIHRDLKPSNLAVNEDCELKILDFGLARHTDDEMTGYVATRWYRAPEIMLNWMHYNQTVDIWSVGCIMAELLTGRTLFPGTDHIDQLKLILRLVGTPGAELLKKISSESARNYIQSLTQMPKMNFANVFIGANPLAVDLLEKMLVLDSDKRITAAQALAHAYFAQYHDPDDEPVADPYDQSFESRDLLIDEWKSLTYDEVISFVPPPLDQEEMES
# [14] = molecular target: Proto-oncogene tyrosine-protein kinase Src (Homo sapiens, UniProt P12931); assay: SRC Invitrogen kinase activity assay
# Proto-oncogene tyrosine-protein kinase Src, sequence (P12931 2-536 limits assumed): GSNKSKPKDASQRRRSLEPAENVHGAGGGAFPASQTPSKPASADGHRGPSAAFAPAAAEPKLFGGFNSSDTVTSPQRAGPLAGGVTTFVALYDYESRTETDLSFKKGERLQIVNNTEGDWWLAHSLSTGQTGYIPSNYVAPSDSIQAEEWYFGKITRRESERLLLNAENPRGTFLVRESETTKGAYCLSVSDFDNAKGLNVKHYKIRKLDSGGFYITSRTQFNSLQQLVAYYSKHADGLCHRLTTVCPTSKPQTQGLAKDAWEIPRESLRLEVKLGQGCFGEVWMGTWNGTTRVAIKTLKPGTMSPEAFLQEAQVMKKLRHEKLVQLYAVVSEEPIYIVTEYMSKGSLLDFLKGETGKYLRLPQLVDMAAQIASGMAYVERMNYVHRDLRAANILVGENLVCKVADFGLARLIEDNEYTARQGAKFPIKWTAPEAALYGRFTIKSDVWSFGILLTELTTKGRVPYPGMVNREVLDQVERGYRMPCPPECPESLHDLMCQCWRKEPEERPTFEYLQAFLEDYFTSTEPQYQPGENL
# [15] = molecular target: T2, Serine/threonine-protein kinase TAO3 (Homo sapiens) (UniProt Q9H2K8); assay: TAOK3 Invitrogen kinase activity assay; conditions: Compound concentration 1.0 uM
# T2 sequence (whole entry): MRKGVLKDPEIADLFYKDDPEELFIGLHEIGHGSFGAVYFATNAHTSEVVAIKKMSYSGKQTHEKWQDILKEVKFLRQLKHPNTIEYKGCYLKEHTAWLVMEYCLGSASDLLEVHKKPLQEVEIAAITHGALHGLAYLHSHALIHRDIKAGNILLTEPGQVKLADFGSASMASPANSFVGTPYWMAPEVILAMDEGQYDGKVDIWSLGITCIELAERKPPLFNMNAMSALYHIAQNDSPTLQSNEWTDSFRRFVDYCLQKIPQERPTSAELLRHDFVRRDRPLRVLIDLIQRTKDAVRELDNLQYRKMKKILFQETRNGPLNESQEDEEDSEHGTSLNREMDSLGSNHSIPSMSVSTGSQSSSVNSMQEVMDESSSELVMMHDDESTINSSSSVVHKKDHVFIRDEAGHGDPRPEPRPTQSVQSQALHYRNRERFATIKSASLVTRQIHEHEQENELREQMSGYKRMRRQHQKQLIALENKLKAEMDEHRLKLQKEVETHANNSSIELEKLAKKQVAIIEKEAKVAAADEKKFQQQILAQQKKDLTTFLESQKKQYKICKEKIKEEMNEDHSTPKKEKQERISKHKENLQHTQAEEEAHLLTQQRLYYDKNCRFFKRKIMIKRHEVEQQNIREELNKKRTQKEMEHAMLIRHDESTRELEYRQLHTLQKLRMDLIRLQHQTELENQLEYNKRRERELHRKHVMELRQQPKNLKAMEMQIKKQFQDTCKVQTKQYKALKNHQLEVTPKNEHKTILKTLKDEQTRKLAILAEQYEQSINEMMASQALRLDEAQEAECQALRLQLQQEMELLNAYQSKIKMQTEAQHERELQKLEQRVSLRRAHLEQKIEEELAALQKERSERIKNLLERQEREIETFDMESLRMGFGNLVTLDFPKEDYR
# [16] = GPCRScan assay: inhibition of GABA/PBR; set-up: species or system Rattus norvegicus; radioligand conc. used [nm] 0.3 – 2.0, parental cells brain tissue
# [17] = molecular target: 5-hydroxytryptamine receptor 1D (Homo sapiens) (UniProt P28221); conditions: Compound concentration 10.0 uM
# 5-hydroxytryptamine receptor 1D (Homo sapiens), sequence (P28221 whole entry): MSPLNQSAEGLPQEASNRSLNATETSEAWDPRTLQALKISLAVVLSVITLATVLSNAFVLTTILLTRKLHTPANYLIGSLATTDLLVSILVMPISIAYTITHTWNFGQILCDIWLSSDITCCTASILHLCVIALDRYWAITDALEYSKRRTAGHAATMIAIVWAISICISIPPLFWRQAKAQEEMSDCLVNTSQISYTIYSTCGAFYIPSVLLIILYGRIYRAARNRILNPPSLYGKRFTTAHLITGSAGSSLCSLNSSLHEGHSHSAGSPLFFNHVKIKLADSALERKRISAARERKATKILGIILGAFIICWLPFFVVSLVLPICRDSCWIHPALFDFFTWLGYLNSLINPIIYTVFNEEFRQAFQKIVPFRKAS
# [18] = molecular target: D(1A) dopamine receptor (Homo sapiens, UniProt P21728); conditions: Compound concentration 10.0 uM
# D(1A) dopamine receptor, sequence (P21728 whole entry): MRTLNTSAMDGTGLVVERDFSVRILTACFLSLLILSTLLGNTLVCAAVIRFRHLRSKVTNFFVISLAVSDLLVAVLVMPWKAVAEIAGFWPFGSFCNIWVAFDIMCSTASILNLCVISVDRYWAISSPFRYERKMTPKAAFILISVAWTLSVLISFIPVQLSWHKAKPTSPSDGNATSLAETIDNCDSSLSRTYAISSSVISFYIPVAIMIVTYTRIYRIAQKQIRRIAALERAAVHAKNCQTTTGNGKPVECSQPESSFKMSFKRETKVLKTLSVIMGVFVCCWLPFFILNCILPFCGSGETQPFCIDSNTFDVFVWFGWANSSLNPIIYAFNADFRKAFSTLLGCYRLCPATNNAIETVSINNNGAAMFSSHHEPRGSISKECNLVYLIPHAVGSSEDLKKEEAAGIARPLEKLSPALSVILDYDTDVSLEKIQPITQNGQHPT
# [19] = molecular target: GABA-A receptor; anion channel (Rattus norvegicus) (UniProt O09028+P15431+P18506+P18508+P19969+P20236+P23574+P23576+P28471+P28473+P30191+P62813+P63079+P63138+Q91ZM7+Q9ES14); conditions: Compound concentration 10.0 uM
# [20] = molecular target: Muscarinic acetylcholine receptor M4 (Homo sapiens) (UniProt P08173); conditions: Compound concentration 10.0 uM
# Muscarinic acetylcholine receptor M4 (Homo sapiens), sequence (P08173 whole entry): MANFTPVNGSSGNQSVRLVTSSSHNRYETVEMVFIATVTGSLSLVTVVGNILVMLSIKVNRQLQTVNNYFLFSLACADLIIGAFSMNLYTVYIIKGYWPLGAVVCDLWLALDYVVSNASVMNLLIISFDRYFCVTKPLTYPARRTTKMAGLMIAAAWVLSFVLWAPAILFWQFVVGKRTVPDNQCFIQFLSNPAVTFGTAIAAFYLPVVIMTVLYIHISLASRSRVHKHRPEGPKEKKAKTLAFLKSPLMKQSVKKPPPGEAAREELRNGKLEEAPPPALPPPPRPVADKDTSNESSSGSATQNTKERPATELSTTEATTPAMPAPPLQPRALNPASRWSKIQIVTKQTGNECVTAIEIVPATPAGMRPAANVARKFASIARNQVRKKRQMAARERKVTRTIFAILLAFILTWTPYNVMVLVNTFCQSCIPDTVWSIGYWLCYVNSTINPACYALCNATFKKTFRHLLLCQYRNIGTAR
# Adenosine receptor A2a, sequence (P29274 whole entry): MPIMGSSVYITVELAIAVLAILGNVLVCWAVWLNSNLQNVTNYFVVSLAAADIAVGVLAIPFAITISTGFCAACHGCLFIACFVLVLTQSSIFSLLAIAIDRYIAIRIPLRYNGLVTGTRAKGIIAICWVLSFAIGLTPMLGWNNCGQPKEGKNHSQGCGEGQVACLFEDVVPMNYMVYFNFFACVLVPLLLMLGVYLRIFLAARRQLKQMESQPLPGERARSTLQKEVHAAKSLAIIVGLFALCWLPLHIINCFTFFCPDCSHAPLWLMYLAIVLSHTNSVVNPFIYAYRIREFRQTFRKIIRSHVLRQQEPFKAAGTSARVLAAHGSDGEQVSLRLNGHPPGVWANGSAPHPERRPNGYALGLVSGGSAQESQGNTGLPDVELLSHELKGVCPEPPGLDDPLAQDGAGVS
smiles,measurement,setting,value
CNC(=O)c1ccc(Nc2ncc(C(F)(F)F)c(NCc3nccnc3N(C)S(C)(=O)=O)n2)cc1 [DEFACTINIB],Ki,[1],0.37 µM (not active)
same,IC50,[2],2.5 µM (not active)
same,inhibition,[3],0%
same,inhibition,[4],72%
same,IC50,[5],0.344 µM
same,inhibition,[6],13%
same,inhibition,[7],18%
same,IC50,[8],0.416 µM
same,inhibition,[8]; Compound concentration 1.0 uM,83%
same,inhibition,[9],2%
same,inhibition,[10],60%
same,inhibition,[11],10%
same,inhibition,[12],18%
same,inhibition,[13],1%
same,IC50,[14],> 1 µM
same,inhibition,[14]; Compound concentration 1.0 uM,58%
same,inhibition,[15],66%
CN(c1ccnc(CNc2nc(Nc3ccc4c(c3)CC(=O)N4)ncc2C(F)(F)F)n1)S(C)(=O)=O [PF-00911705],Ki,[16],1.48 µM
same,pKi,[16],5.83
same,inhibition,[17],0.19%
same,inhibition,[18],0.76%
same,inhibition,[19],10.3%
same,inhibition,[20],8.94%
